In US20230416688A1, “CHEMICAL CULTURE SYSTEM AND USE THEREOF” (IREGENE THERAPEUTICS LTD, priority 2020, published 2023):

How the values were obtained:
[1] = tested on: human neural cell line ReNcell VM; assay: Cyquant cell viability assay, neural cell line, compound concentration screening; assay type: cell-based; settings: only this component's concentration changed
Method: 6-well culture plates were coated with 50 μg/mL polylysine (SIGMA, P6407) and incubated for more than 3 h at 37° C. in a thermostat after plate laying; then further coated with 5 μg/mL Laminin (I2020, SIGMAALDRICH) and incubated for more than 3 h at 37° C. in a thermostat after plate laying. Mouse primary cells and the human neural cell line ReNcell VM were cultured, where mouse primary cell isolation was performed according to the method described in Nature Protocols. Volume 7, pages 1741-1754 (2012). Cell culture conditions were 37° C., 5% carbon dioxide (Panasonic, MCO-18AC), and cell adherent culture. The culture medium of the present invention, Neuralbasal+I0% FBS and N2B27 culture medium were used for comparison, respectively. Cell passage was digested with 0.05% trypsin/EDTA at 37° C. for 5 min, and the cell digestion was terminated with DMEM+10% FBS. […]
(§1) The Cyquant assay is used for quantitative detection of cell viability to compare the effects of different medium components on the physiological state of cells during long-term cell culture. […] Samples were taken on day 1, day 5, day 15 and day 30, and cell viability assays were performed using CyQuant Kit (Invitrogen, X12223) and operated according to the instruction manual, and using SpectraMax i3 Multi-Mode Microplate Reader (VWR, model ID3-STD) for data reading. […]

induced cortical neurons = assay: Cyquant cell viability assay during induction of cortical neurons; assay type: cell-based, human; settings: FIG. 6n; cortical neuron induction
Method: For cortical neuron differentiation, 6-well culture plates were coated with 50 μg/mL poly-Lysine (SIGMA, P6407) and incubated for more than 3 h in a 37° C. incubator after plate laying; then further coated with 3 μg/mL laminin (Laminin, 12020, SIGMAALDRICH) and incubated for more than 3 h at 37° C. after plate laying. The induced nerve stem cells obtained in Example 3 was re-inoculated into T25 culture plates at a rate of 1×105 per vial. Neural stem cells were cultured using NouvNeu culture medium at 37° C. and 5% CO2 (Panasonic, MCO-18AC), and the medium was replaced with fresh medium every three days until neurons formation on day 30. In the control experiment, N2B27 medium was used for neuron induction, and the specific operation steps were the same as above.
as §1, with “10,” for “5,”, “35,” for “30,”, “i3Multi-Mode” for “i3 Multi-Mode”, “Model” for “model”

Compound	use range of concentration in the medium (Cyquant) ([1]; FIG. 2b) [µg/mL]	use range of concentration in the medium (Cyquant) (induced cortical neurons) [µg/mL]	use range of concentration in the medium (Cyquant) ([1]; FIG. 2d) [µg/mL]
O=C[C@H](O)[C@@H](O)[C@@H](O)[C@H](O)CO [D(+)-galactose]	5 to 25	5 to 25	–
recombinant human transferrin: recombinant human transferrin, component of the NouvNeu medium	–	–	0.05 to 0.2
